Laboratory results reported in paper PMC4896453 (PLoS ONE, 2016).
Entries after “also recorded” stand apart in the source; their conditions may differ. Like-named read-outs stand apart in the source and are kept apart here.

What was measured:
[1] = tested on: electrically stimulated guinea pig ileum; test: Electrically stimulated guinea pig ileum bioassay; conditions: for Kb: Cavia porcellus
Procedure: With approval of Animal Subjects Review Board of the University of Ferrara and from the Italian Ministry of Health (PROT-186) ileum tissues were taken from male albino guinea pigs of 350–400 g (Pampaloni, Pisa, Italy). The animals were treated in accordance with European guidelines (86/609/ECC) and national regulations (DL 116/92). They were housed in 560 x 320 x 180 mm cages (Techinplast), three per cage, under standard conditions (22°C, 55% humidity, 12 h light/dark cycle, light on at 7:00 h) with food (complete feed for guinea pig, Mucedola, Milano, Italy) and water ad libitum. The day of the experiment the animals were killed with an isofluorane overdose. Bioassay experiments were performed as previously described. The tissues were suspended in 5 ml organ baths containing Krebs solution (composition in mM: NaCl 118.5, KCl 4.7, MgSO4 1.2, KH2PO4 1.2, NaHCO3 25, CaCl2 1.8, glucose 10), hexamethonium bromide 22 μM, benadril 0.34 μM and oxygenated with 95% O2 and 5% CO2. The temperature was set at 37°C. At resting tension, 1 g was applied to the tissues. Tissues were stimulated through two platinum electrodes with a supramaximal rectangular pulse of 1 ms duration, 0.05 Hz frequency, 80V amplitude. Electrically evoked contractions were measured isotonically by means of Basile strain gauge transducers (Basile 7006; srl Ugo Basile, Varese, Italy) and recorded with a computer–based acquisition system (Power Lab 8, ADInstruments, USA). After an equilibration period of about 60 min, the contractions induced by electrical field stimulation were stable. At this time, cumulative concentration response curves to agonists were constructed (0.5 log unit steps). Antagonists were injected into the baths 15 minutes before constructing agonist concentration response curves.
Data are expressed as mean±SEM or with confidence intervals as appropriate. For more than 2 groups, data are analysed using ANOVA with post-hoc testing using Dunnett’s or Bonferroni’s test as appropriate. Where there are only 2 groups paired or unpaired t-tests were used. P values of less than 0.05 were considered significant. All curve fitting was accomplished using Graphpad-Prism (V6). […] In gpI experiments the antagonist potency (pKb) is calculated from the rightward shift of the agonist concentration response curve by a fixed antagonist concentration.

rat = conditions: in vivo; cited from earlier work
monkey = monkey tail withdraw assay; cited from earlier work
[2] = molecular target: T1, Mu receptor (CHOhMu cells) (Homo sapiens, UniProt P35372); test: cAMP assay, forskolin-stimulated CHOhMu whole cells; assay type: cell-based; conditions: forskolin 1μM, mean (±SEM)
T1 construct: expressed in transfected cells; host or cells: CHO (Chinese Hamster Ovary)
Procedure: (§1) CHOhMu and CHOhNOP whole cells were suspended in Krebs/HEPES buffer, containing isobutylmethylxanthine (1mM) and forskolin (1μM).

[3] = molecular target: T2, NOP receptor (CHOhNOP cells) (Homo sapiens, UniProt P41146); test: cAMP assay, forskolin-stimulated CHOhNOP whole cells; assay type: cell-based; conditions: forskolin 1μM, mean (±SEM)
T2 construct: expressed in transfected cells; host or cells: CHO (Chinese Hamster Ovary)
Procedure: as §1

[4] = molecular target: human NOP receptor (NOP-RLuc/Gβ1-RGFP) (Homo sapiens, UniProt P41146); test: biochemical; assay type: biochemical
human Mu receptor = molecular target: T3, human Mu receptor (Homo sapiens, UniProt P35372); test: Calcium mobilisation, CHO cells with Mu and Gαqi5; assay type: cell-based; conditions: calcium mobilisation, at least 3 experiments in duplicate
T3 construct: expressed in transfected cells; host or cells: CHO

rats = test: Rota-rod test after intrathecal infusion; assay type: in vivo, rat; conditions: same range of doses (0.1–1 nmol), data not shown
Procedure: For all the experiments described below, male Sprague-Dawley rats (Harlan, Varese, Italy), weighing approximately 280-300g at the beginning of the experimental procedure, were used. Animals were housed in CeSAL (Centro Stabulazione Animali da Laboratorio, University of Florence) and used at least one week after their arrival. One rat was housed per cage (size 26x41 cm); animals were fed with standard laboratory diet and tap water ad libitum, and kept at 23±1°C with a 12 h light/dark cycle, light at 7 a.m. […] All animals were monitored daily using a scoring system (based on: Appearance, Food and Water Intake, Clinical Signs, Natural Behaviour and Provoked Behaviour. Maximum score is 20 and animals reaching 10 are euthanized. In the experiments reported here no animals reached this score and none died before the end of the experiment) and at the end of the experiment were euthanized by CO2 overdose. […]
Rota-rod apparatus (Ugo Basile, Varese, Italy) consisted of a base platform and a rotating rod with a diameter of 6 cm and a non-slippery surface. […] The integrity of motor coordination was assessed on the basis of the number of falls from the rod in 60s measured 15, 30, 45, 60, 90, 120 and 180 min after treatments.

[5] = molecular target: T4, human NOP receptor (NOP-RLuc/β-arrestin 2-RGFP) (Homo sapiens, UniProt P41146); test: BRET NOP-RLuc/β-arrestin 2-RGFP interaction, HEK-293 cells; assay type: cell-based; conditions: BRET, HEK-293 cells, room temperature; at least 4 experiments in duplicate
T4 construct: expressed in transfected cells; host or cells: HEK-293 (retroviral expression; whole cells)

human NOP receptor = molecular target: T5, human NOP receptor (Homo sapiens, UniProt P41146); test: Calcium mobilisation, CHO cells with NOP and Gαqi5; assay type: cell-based; conditions: calcium mobilisation, CHO cells with human NOP and Gαqi5, Fluo-4 AM, 37°C; at least 3 experiments in duplicate
T5 construct: expressed in transfected cells; host or cells: CHO

[6] = molecular target: T6, human Mu receptor (Mu-RLuc/β-arrestin 2-RGFP) (Homo sapiens, UniProt P35372); test: BRET Mu-RLuc/β-arrestin 2-RGFP interaction, SH-SY5Y cells; assay type: cell-based; conditions: BRET, SH-SY5Y cells, room temperature; at least 4 experiments in duplicate
T6 construct: expressed in transfected cells; host or cells: SH-SY5Y (retroviral expression; whole cells)

[7] = antagonist 15 minutes before agonist curve, from rightward shift, read-out: antagonist potency pKb against DeNo (converted)

T3 sequence (P35372 whole entry): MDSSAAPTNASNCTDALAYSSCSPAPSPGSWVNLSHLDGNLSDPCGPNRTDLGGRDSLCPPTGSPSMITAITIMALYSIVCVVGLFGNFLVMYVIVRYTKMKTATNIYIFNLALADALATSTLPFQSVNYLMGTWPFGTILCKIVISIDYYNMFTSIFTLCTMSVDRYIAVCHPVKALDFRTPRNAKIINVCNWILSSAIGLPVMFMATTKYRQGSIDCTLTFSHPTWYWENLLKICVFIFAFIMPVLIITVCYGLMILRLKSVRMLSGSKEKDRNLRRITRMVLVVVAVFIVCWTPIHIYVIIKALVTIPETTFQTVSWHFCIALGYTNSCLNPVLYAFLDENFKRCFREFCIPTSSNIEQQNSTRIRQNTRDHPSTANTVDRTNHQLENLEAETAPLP
Chain of human NOP receptor (NOP-RLuc/Gβ1-RGFP) (P41146 whole entry, looked up): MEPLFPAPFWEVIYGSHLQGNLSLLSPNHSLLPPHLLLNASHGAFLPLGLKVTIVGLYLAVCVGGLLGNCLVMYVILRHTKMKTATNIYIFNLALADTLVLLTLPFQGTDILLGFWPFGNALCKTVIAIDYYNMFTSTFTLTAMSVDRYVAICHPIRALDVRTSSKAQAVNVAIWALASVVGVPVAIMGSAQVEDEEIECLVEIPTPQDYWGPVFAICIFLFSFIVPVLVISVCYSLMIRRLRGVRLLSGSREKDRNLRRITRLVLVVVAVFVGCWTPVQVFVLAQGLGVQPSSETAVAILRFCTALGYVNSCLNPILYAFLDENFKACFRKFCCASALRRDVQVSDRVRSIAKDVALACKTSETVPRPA
T4 sequence (P41146+P27652 fused): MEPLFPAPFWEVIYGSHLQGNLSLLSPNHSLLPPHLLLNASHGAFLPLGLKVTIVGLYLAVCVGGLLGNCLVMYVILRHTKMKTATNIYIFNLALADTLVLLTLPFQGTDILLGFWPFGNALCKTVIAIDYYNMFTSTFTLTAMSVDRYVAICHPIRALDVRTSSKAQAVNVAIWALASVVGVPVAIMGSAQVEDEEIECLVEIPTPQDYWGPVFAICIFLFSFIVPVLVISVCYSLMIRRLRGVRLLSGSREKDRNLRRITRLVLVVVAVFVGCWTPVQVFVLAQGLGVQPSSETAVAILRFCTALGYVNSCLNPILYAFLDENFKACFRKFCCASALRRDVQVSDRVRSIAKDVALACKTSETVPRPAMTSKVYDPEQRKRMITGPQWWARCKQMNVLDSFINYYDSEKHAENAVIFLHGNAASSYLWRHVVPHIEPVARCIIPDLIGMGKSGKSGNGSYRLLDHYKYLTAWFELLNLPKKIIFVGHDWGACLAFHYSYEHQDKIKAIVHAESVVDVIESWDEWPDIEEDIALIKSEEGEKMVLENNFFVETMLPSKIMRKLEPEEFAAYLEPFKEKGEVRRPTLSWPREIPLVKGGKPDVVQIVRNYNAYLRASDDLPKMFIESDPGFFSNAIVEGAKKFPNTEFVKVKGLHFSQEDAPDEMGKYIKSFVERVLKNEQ
T4 sequence (P32121 whole entry partner): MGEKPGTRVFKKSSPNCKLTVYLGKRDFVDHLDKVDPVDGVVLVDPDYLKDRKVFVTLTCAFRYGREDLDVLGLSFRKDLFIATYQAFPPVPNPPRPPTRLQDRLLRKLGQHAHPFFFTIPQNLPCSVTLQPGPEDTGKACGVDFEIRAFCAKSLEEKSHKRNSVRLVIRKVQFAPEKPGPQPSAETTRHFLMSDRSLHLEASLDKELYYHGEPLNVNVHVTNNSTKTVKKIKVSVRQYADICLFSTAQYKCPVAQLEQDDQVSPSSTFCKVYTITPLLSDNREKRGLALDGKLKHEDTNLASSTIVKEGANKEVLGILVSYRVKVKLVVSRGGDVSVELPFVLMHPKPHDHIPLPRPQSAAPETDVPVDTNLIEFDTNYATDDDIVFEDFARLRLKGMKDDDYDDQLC
T2 sequence (P41146 whole entry): as the sequence (P41146 whole entry, looked up) above
T5 sequence (P41146 whole entry): as the sequence (P41146 whole entry, looked up) above
T6 sequence (P35372+P27652 fused): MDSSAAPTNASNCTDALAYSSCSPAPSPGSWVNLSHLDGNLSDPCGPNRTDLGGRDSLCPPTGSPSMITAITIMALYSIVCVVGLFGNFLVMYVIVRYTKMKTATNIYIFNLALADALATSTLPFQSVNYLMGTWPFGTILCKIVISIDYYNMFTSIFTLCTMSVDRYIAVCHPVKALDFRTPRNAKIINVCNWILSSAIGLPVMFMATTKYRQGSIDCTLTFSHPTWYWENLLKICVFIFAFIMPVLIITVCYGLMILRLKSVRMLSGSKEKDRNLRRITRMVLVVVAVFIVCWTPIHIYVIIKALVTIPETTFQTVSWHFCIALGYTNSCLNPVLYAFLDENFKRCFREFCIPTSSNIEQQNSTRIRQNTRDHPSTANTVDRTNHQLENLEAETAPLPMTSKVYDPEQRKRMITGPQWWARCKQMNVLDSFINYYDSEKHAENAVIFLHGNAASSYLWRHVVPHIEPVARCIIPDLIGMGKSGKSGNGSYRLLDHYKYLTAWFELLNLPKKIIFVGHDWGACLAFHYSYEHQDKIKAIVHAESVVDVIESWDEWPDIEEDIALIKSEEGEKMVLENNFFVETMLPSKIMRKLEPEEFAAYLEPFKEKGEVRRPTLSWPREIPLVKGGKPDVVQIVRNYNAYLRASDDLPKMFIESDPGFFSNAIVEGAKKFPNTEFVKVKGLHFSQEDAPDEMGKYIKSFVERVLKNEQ
T6 sequence (P32121 whole entry partner): as the sequence (P32121 whole entry partner) above
T1 sequence (P35372 whole entry): as the sequence (P35372 whole entry) above

C=CCN1CC[C@]23c4c5ccc(O)c4O[C@H]2C(=O)CC[C@@]3(O)[C@H]1C5 [naloxone, Naloxone]
Kb [1, 7]: 28.8 nM | Kb ([1]; read-out: antagonist potency pKb against dermorphin (converted), antagonist 15 minutes before agonist curve, from rightward shift): 2.69 nM | antagonist potency pKb against N/OFQ ([1]; antagonist 100 nM, 15 minutes before agonist curve, from rightward shift): does not affect the inhibitory action of N/OFQ

Cc1cccc2c1CC[C@H](CN1CCC(c3c(Cl)cccc3Cl)CC1)C[C@@H]2O [SB-612111]
Kb ([1]; antagonist 100 nM, 15 minutes before agonist curve, from rightward shift, read-out: antagonist potency pKb against N/OFQ (converted)): 4.37 nM | Kb [1, 7]: 85.1 nM

CN1CC[C@]23c4c5ccc(O)c4O[C@H]2[C@@H](O)C=C[C@H]3[C@H]1C5 [morphine]
time to tolerance (rat): 11 days

[Dmt^1]N/OFQ(1–13)-NH2
increase in potency over N/OFQ (monkey): 30 fold

C=C[C@@]1(C)CC(=O)[C@]2(O)[C@@]3(C)[C@@H](O)CCC(C)(C)[C@@H]3[C@H](O)[C@H](OC(C)=O)[C@@]2(C)O1 [forskolin]
increase in cAMP production compared to basal, CHOhMu [2]: 24.3 (±1.79) fold | increase in cAMP production compared to basal, CHOhNOP [3]: 21.23 (±3.86) fold

C[C@@H](NC(=O)[C@@H](N)Cc1ccc(O)cc1)C(=O)N[C@@H](Cc1ccccc1)C(=O)NCC(=O)N[C@@H](Cc1ccc(O)cc1)C(=O)N1CCC[C@H]1C(=O)N[C@@H](CO)C(N)=O [dermorphin]
Gβ1-protein NOP pEC50(CL95%) [4]: very weak only increasing BRET ratio at micromolar concentrations; also recorded: crc incomplete | Emax (human Mu receptor; % over basal fluorescence, CHO cells with human Mu and Gαqi5, SEM): 234 ± 14% | animal performance in the rotarod test (rats): impaired animal performance in the rotarod test | β-arrestin 2 NOP pEC50 (CL95%) [5]: completely inactive | NOP pEC50 (CL95%) (human NOP receptor): crc incomplete

CC(C)C[C@H](NC(=O)[C@H](CCCCN)NC(=O)[C@H](CCCNC(=N)N)NC(=O)[C@H](C)NC(=O)[C@H](CO)NC(=O)[C@H](CCCCN)NC(=O)[C@H](CCCNC(=N)N)NC(=O)[C@H](C)NC(=O)CNC(=O)[C@@H](NC(=O)[C@H](Cc1ccccc1)NC(=O)CNC(=O)CNC(=O)[C@@H](N)Cc1ccccc1)[C@@H](C)O)C(=O)N[C@@H](C)C(=O)N[C@@H](CC(N)=O)C(=O)N[C@@H](CCC(N)=O)C(=O)O [N/OFQ, nociceptin/orphanin FQ]
Mu Emax ± SEM (human Mu receptor; % over basal fluorescence, CHO cells with human Mu and Gαqi5): Inactive | Mu pEC50 (CL95%) (human Mu receptor; CHO cells with human Mu and Gαqi5, Fluo-4 AM, 37°C): Inactive | β-arrestin 2 Mu pEC50 (CL95%) [6]: inactive
